Measured values taken from US6423729B1, “Therapeutic or prophylactic agent for glomerulopathy” (Shionogi & Co., Ltd., priority 1997, dated 2002).

Legend:
MMP-2 = molecular target: T1, MMP-2 (Homo sapiens, UniProt P08253); assay: Assay for inhibitory activity against MMP-2; format: biochemical
T1 construct: purchased Yagai (Yamagata pref., Japan)
T1 sequence (P08253 110-660): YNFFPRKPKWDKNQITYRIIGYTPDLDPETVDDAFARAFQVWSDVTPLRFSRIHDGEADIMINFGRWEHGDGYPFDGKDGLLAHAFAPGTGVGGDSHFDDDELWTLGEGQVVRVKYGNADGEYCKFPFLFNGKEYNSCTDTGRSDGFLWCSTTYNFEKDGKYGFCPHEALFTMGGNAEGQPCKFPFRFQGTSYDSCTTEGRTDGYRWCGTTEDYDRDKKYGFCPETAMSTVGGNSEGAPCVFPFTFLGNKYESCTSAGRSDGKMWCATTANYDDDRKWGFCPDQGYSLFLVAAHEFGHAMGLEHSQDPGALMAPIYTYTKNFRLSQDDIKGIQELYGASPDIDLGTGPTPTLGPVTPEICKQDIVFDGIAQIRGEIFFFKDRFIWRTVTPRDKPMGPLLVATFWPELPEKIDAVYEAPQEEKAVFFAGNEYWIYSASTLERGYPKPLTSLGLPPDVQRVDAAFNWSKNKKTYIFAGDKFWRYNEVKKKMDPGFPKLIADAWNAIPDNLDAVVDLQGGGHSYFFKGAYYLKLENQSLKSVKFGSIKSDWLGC
Experimental: (§1) Assay for Inhibitory Activities of MMP-9 and MMP-2
(§2) The enzymatic activity was analyzed on the method described by Knight, C. G., et al. (C. Graham Knight., Frances Willenbrock and Gillian Murphy: A novel coumarin-labelled peptide for sensitive continuous assays of the matrix metalloproteinases. FEBS Lett., 296 (1992) 263-266).
MMP-2 was purchased from Yagai (Yamagata pref., Japan).
(§3) MOCAc-Pro-Leu-Gly-Leu-A2pr(Dnp)-Ala-Arg-NH2 as a substrate was purchased from Petide Institute(Osaka pref., Japan). This substrate was dissolved in DMSO at a concentration of 1 mM.
(§4) Reaction buffer consists of 50 mM Tris-HCl buffer (pH 7.5) containing 10 mM CaCl2, 0.3 M NaCl, 0.005% Brij35 and 0.01% NaN3.
Assay Method of Inhibitory Activity Against MMP-2:
(§5) 1.0 μl of a tested compound in DMSO is added to 48.0 μl of a reaction buffer containing 0.05 μl of an enzyme solution. After standing for 60 minutes at room temperature, the reaction was started by adding 1.0 μl of a substrate solution. After incubation for 60 minutes at room temperature, 100 μl of 3% (v/v) AcOH for reaction stopping and measured a fluorescence with excitation and emission at 320 nm and 405 nm, respectively (Spectrophotofluorometer; Fluoroscan Ascent (Labsystem)).
(§6) The measurement of the inhibitory activities (IC50) was carried out in a following four methods;
(§7) A) Reaction with substrate, enzyme and inhibitor
(§8) B) Reaction with substrate and inhibitor, without enzyme
(§9) C) Reaction with substrate and enzyme, without inhibitor
(§10) D) Reaction with substrate only
(§11) IC50 values were calculated by using a following formula and each fluorescence values of above four methods (A to D).
(§12) % inhibition={1−(A−B)/(C−D)}×100
(§13) IC50 means the concentration required to inhibit 50% of the enzyme activity.

MMP-9 = molecular target: T2, MMP-9 (Homo sapiens, UniProt P14780); assay: Assay for inhibitory activity against MMP-9; format: biochemical
T2 construct: made in house; host or cells: HT1080 human fibrosarcoma cells; endogenous protein secreted after TPA treatment and purified from conditioned medium
Experimental: as §1, §2
MMP-9 was purified by using a combination of procedures described in previous reports as follows. Yasunori Okada, Yukio Gonoji, Katsumi Naka, Katsuro Tomita, Isao Nakanishi, Kazushi Iwata and Taro Hayakawa: Matrix metalloproteinase 9 (92-kDa gelatinase/type IV collagenase) from HT1080 human fibrosarcoma cells. Purification and activation of the precursor and enzymic properties. J. Biol. Chem., 267 (1992) 21712-21719. Yasunori Okada, Tatsuhisa Morodomi, Jan J, Enghild, Ko Suzuki, Atsushi Yasui, Isao Nakanishi, Guy Salvesen and Hideaki Nagase: Matrix metalloproteinase 2 from human rheumatoid synovial fibroblasts. Purification and activation of the precursor and enzymic properties. Eur. J. Biochem. 194 (1990) 721-730. Robin V Ward, Rosalind M Hembry, John J Reynolds and Gillian Murphy: The purification of tissue inhibitor of metalloproteinase-2 from its 72 kDa progelatinase complex. Biochem. J. 278 (1991) 179-187.
Briefly, human fibrosarcoma ATCC HT1080 cell line was cultured to confluent in Dulbecco's Modified Medium (DMEM) containing 10% fetal-calf serum at 37° C. for 48 hours. Subsequently, the medium of confluent culture was changed to serum-free DMEM medium. To obtain MMP-9, Phorbol-12-myristate-13-acetate (TPA) must be added to this serum-free DMEM medium at a concentration of 50 ng/ml. The TPA treated medium was centrifuged at 3000 rpm for 15 min and the supernatant was concentrated to 450 ml by a Toyo-Roshi UP-20 apparatus with an ultrafiltration membrane. Then, proMMP-9 in this concentrated solution was purified by using columns of Gelatin-Sepharose and Concanavalin A-Sepharose. The pool containing proMMP-9 was dialyzed, concentrated (Toyo-Roshi UP-20) and applied to columns of Sephacryl S-200 and Green A matrix for the separation from TIMPs. The obtained proMMP-9 fraction was activated by TPCK-Trypsin (final conc. […] reaction mix.) for the assay.
as §3, §4
Assay Method of Inhibitory Activity Against MMP-9:
as §5, with “0.08” for “0.05”
as §6, §7, §8, §9, §10, §11, §12, §13

[1] = system: E30 monoclonal antibody-induced glomerulonephritis in Slc-Wistar rats; assay: Urinary protein excretion in E30 monoclonal antibody-induced glomerulonephritis rats; format: in vivo, rat; details: urinary protein excretion on day 2 after E30 injection, compound-treated vs vehicle-treated group, oral, 100 mg once a day, first dose 2 hours before E30
Experimental: Five to eight weeks old male Slc-Wistar rats were used in the experiment.
In order to induce glomerulonephritis, E30 of 20 to 500 μg, preferably 50 to 200 μg, is intravenously injected to rats of five to eight weeks old. Test compounds of 0.1 to 500 mg, preferably 1 to 200 mg, are suspended with 3 to 10%, preferably 4 to 6%, gum arabic solution and the like, and are orally given 1 to 5 hours, preferably 1.5 to 3 hours, prior to E30 injection. Constant amount of test compounds are then consecutively given 1 to 3 times a day. Evaluation of test compounds are determined by the amount of urinary protein excretion 2 days after E30 injection when proteinuria reaches to the maximum level.
Determination of the amount of urinary protein excretion is performed by the collection of 24-hour urine samples with stainless metabolic cages followed by the measurement of the concentration of urinary protein. Blood samples obtained at the follow-up period are processed for the determination of blood urea nitrogen and plasma creatinine, which indicate renal function. As a marker of damaged renal tubules, urinary amounts of N-acetyl-D-glycosaminidase excretion is measured. Furthermore, to study the inhibitory effects of compounds on mesangial proliferation following E30 injection, the number of PCNA (proliferating cell nuclear antigen) positive cells per single glomerulus is counted. Morphological changes are observed with light and electron microscopy.
5-week-old male Slc-Wistar rats were reared under the conditions of room temperature of 25° C., 40-60% humidity and 12 hour cycles of light and darkness and fed on solid chow (CA-1, Clea Japan) and tap water ad libitum. After one week's preliminary rearing, each rat was housed in a stainless metabolic cage for acclimation for one week, and was used for experiment at 7 weeks of old (body weight: 150-180 g). E30 monoclonal antibody (J.J.N., vol. 36, p106, 1994) was diluted with saline at 100 μg/0.4 ml and was administered from tail vein at the volume of 0.4 ml/body. Compound (2) was suspended with 5% gum arabic solution and was given at the dose of 100 mg 2 hours before E30 injection. Subsequently, compound (2) of 100 mg was orally administered once a day from the next day. The rats were housed in stainless metabolic cages just after the administration of test compound, and then 24-hour urine samples were collected. After measuring the volume, the urine was centrifuged at 3000 rpm for 10 min at room temperature. […] Urinary protein was determined by pyrogallole red method (Micro TP-test Wako, Wako Zyunyaku). The amount of urinary protein excretion on day 2 in compound-treated group was compared with that in vehicle-treated one, and inhibitory ratio of urinary protein excretion was calculated. […]

T2 sequence (P14780 107-707 limits assumed): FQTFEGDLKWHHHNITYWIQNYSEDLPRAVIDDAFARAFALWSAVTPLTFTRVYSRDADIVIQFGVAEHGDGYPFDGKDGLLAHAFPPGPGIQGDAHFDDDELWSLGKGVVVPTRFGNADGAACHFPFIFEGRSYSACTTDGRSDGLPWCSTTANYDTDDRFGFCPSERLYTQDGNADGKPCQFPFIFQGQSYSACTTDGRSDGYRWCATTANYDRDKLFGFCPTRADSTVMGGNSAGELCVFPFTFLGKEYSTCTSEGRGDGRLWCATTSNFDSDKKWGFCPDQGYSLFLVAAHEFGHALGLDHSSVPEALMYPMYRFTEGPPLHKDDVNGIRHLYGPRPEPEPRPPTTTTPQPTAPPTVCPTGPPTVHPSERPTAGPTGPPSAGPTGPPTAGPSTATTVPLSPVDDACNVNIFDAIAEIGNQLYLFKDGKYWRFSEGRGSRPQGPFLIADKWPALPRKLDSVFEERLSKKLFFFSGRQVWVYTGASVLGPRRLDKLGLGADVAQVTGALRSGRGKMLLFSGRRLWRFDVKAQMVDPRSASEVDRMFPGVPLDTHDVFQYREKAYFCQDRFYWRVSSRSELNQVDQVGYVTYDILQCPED

Row | Compound | IC50 (MMP-2) [nM] | melting point [°C] | IC50 (MMP-9) [nM] | Inhibitory rate (%) of urinary protein excretion [1] [%]
1 | Cc1ccc(-n2nnc(-c3ccc(S(=O)(=O)N[C@H](Cc4ccccc4)C(=O)O)s3)n2)cc1 [Compound 95] | 10.7 | 166 to 169 | 19 | 21
2 | CC(C)[C@@H](NS(=O)(=O)c1ccc(-c2nnn(-c3ccc(F)cc3)n2)s1)C(=O)O [Compound 97] | 15.6 | 184 to 186 | 136 | –
3 | CC(C)[C@@H](NS(=O)(=O)c1ccc(-c2ncc(-c3ccccc3)o2)s1)C(=O)O [Compound 98] | 95.3 | 220 to 223 | 787 | –
4 | Cc1ccc(-c2ccc(-c3ccc(S(=O)(=O)N[C@@H](C(=O)O)C(C)C)cc3)s2)cc1 [Compound 103] | 6.12 | – | 27.8 | –
5 | O=C(O)[C@@H](Cc1ccccc1)NS(=O)(=O)c1ccc(-n2nnc(-c3ccc(F)cc3)n2)cc1 [Compound 105] | 41.4 | 190 to 192 | 304 | –
6 | CC(C)[C@@H](NS(=O)(=O)c1ccc(-n2nnc(-c3ccc(F)cc3)n2)cc1)C(=O)O [Compound 106] | 28.3 | 204 to 205 | 104 | –
7 | CCc1ccc(-c2nnn(-c3ccc(S(=O)(=O)N[C@@H](Cc4ccccc4)C(=O)O)cc3)n2)cc1 [Compound 110] | 25.7 | 188 to 190 | 94.7 | –
8 | O=C(O)[C@@H](Cc1c[nH]c2ccccc12)NS(=O)(=O)c1ccc(-n2nnc(-c3ccc(F)cc3)n2)cc1 [Compound 111] | 10.7 | 113 to 115 | 104 | –
9 | CCc1ccc(-c2nnn(-c3ccc(S(=O)(=O)N[C@H](C(=O)O)C(C)C)cc3)n2)cc1 [Compound 112] | 28.4 | 179 to 181 | 126 | –
10 | CCc1ccc(-c2nnn(-c3ccc(S(=O)(=O)N[C@H](CC(C)C)C(=O)O)cc3)n2)cc1 [Compound 113] | 5.7 | 153 to 154 | 71.8 | –
11 | O=C(O)[C@@H](Cc1ccccc1)NS(=O)(=O)c1ccc(-n2nnc(-c3ccccc3)n2)cc1 [Compound 115] | 181 | 191 to 192 | 4610 | –

The next compounds have a lower IC50 (MMP-2) than those just listed; values first:

Row | IC50 (MMP-2) [nM] | melting point [°C] | IC50 (MMP-9) [nM] | Compound | Inhibitory rate (%) of urinary protein excretion [1] [%]
12 | 3.69 | 158 to 160 | 10 | Cc1ccc(C#Cc2ccc(S(=O)(=O)N[C@H](Cc3ccccc3)C(=O)O)s2)s1 [Compound 87] | –
13 | 1.5 | 178 to 179 | 36.2 | Cc1ccc(-n2nnc(-c3ccc(S(=O)(=O)N[C@@H](C(=O)O)C(C)C)s3)n2)cc1 [Compound 96] | –
14 | 2.02 | 198 to 200 | 18.7 | CC(C)[C@@H](NS(=O)(=O)c1ccc(-n2nnc(-c3ccc(C(F)(F)F)cc3)n2)cc1)C(=O)O [Compound 104] | 27
15 | 3.51 | 186 to 187 | 8.25 | CCc1ccc(-c2nnn(-c3ccc(S(=O)(=O)N[C@@H](C(=O)O)C(C)C)cc3)n2)cc1 [Compound 107] | –
16 | 2.62 | 155 to 157 | 31 | CCc1ccc(-c2nnn(-c3ccc(S(=O)(=O)N[C@H](C)C(=O)O)cc3)n2)cc1 [Compound 117] | –
17 | 2.16 | 187 to 189 | 61.6 | CCOc1ccc(-c2nnn(-c3ccc(S(=O)(=O)N[C@@H](C(=O)O)C(C)C)cc3)n2)cc1 [Compound 118] | –
18 | 1.69 | 185 to 188 | 45.5 | CC(C)[C@@H](NS(=O)(=O)c1ccc(-n2nnc(-c3ccc(N(C)C)cc3)n2)cc1)C(=O)O [Compound 119] | –
19 | 0.919 | 194 to 196 | 5.82 | CSc1ccc(-c2nnn(-c3ccc(S(=O)(=O)N[C@@H](C(=O)O)C(C)C)cc3)n2)cc1 [Compound 120] | –
20 | 0.561 | 191 to 193 | 148 | CCCCc1ccc(-c2nnn(-c3ccc(S(=O)(=O)N[C@@H](C(=O)O)C(C)C)cc3)n2)cc1 [Compound 121] | –
